Results from patent US20250277012A1 (Protagonist Therapeutics, Inc., priority 2021, published 2025).
pIC50: −log10 of the molar value. Where two headings read alike, the source gives them in different places. Positions of bridges follow the written chain, without caps; N, C: chain ends. Non-standard residues stand in square brackets, D forms with d. Residues, ends and D or L forms follow the SMILES beside them. Groups on a side chain read outwards from the residue. *: point of attachment. X1 = C[N+](C)(CCNC(=O)CCCCCCCCCCCCCCCCC(=O)O)CC(=O)*; C18 diacid = O=C(O)CCCCCCCCCCCCCCCCC(=O)*; Dip = N[C@H](C(=O)O)C(c1ccccc1)c1ccccc1; β3hF = N[C@H](CC(=O)O)Cc1ccccc1; dNMeL = CN[C@H](CC(C)C)C(=O)O; NMeK = CN[C@@H](CCCCN)C(=O)O; Isovaleryl = CC(C)CC(=O)*; Dap = NC[C@H](N)C(=O)O; AEEA = NCCOCCOCC(=O)O; Ahx = NCCCCCC(=O)O

Key:
[1] = target: human ferroportin (SLC40A1) fused in frame with the GFP protein (human) (UniProt Q9NP59); experiment: cell-based or functional assay
ferroportin [2] = target: T1, ferroportin (Homo sapiens, UniProt Q9NP59); experiment: FPN activity assay: ferroportin-GFP internalization/degradation in HEK293 cells; format: cell-based; set-up: expressed in transfected cells; conditions: ferroportin-GFP internalization/degradation, Table 6E, read-out: FPN IC50
T1 sequence (Q9NP59 1-571): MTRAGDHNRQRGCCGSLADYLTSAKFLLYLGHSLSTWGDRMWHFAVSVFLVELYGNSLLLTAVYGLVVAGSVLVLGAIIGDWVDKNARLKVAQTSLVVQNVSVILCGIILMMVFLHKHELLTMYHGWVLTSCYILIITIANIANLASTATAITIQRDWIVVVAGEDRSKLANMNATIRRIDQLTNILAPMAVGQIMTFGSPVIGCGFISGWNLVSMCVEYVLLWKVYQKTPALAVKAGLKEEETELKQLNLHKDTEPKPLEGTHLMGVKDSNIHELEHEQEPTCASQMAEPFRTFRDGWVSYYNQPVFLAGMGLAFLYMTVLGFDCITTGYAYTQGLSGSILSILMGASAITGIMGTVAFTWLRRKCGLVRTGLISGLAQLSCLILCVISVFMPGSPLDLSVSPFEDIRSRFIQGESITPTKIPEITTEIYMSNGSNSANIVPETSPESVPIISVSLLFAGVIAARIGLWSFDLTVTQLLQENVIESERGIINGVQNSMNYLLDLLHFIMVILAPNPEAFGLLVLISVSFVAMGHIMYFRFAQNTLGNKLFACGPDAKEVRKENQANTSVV
Experimental: Following internalization, the ferroporin protein is degraded.
A retro inverse peptide is a peptide with a reversed sequence in all D amino acids. An example is that Hy-Glu-Thr-His-NH2 becomes Hy-DHis-DThr-DGlu-NH2. The EC50 of these reference compounds for ferroportin internalization/degradation was determined according to the FPN activity assay described above. These peptides served as control standards.

ferroportin [3] = target: T1, ferroportin; experiment: T47D cell-based ferroportin internalization assay in presence of mouse serum albumin (MSA); set-up: a human breast carcinoma adherent cell line which endogenously expresses ferroportin; host or cells: T47D; conditions: Table 6E
Outline: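 Peptide potency for inducing ferroportin internalization was measured in T47D cells in the presence of serum albumin. Cells grown in RPMI with fetal bovine serum were seeded in 96-well plates at 80-100 k cells per well in 100 ul and rested overnight. Dilution series of test peptides were preincubated 30 min at room temperature, then added to the cells after the medium was aspirated.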

[4] = T47D internalization assay in presence of mouse serum albumin (MSA)

Compound	Potency EC50 [1]	DC50 (ferroportin [2]; HEK293 cells)	pIC50 (ferroportin [3]; [4])	DC50 (ferroportin [2]; at least 18 hours incubation)	pIC50 (ferroportin [3]; T47D internalization assay with MSA)
Hepcidin (ligand)	34 nM				
CC(C)CC(=O)N[C@@H](CCC(=O)O)C(=O)N[C@H](C(=O)N[C@@H](Cc1cnc[nH]1)C(=O)N[C@H](C(=O)N1CCC[C@H]1C(=O)N[C@H]1CSSC[C@@H](C(=O)N(C)[C@@H](CCCCNC(=O)COCCOCCNC(=O)COCCOCCNC(=O)[C@H](CN)NC(=O)CCCCCCCCCCCCCCCCC(=O)O)C(=O)N[C@H](CC(=O)N[C@H](CCCCN)C(=O)N(C)[C@H](CC(C)C)C(N)=O)Cc2ccccc2)NC1=O)C(c1ccccc1)c1ccccc1)[C@@H](C)O [compound 249] (Isovaleryl-ETH[Dip]PCC[NMeK]([AEEA-AEEA-Dap-C18 diacid])[β3hF][dK][dNMeL]-NH2; disulfide 6-7)		10 to 100 nM	7.00 to 8.00		
CC(C)CC(=O)N[C@@H](CCC(=O)O)C(=O)N[C@H](C(=O)N[C@@H](Cc1cnc[nH]1)C(=O)N[C@H](C(=O)N1CCC[C@H]1C(=O)N[C@H]1CSSC[C@@H](C(=O)N(C)[C@@H](CCCCNC(=O)COCCOCCNC(=O)COCCOCCNC(=O)[C@H](CN)NC(=O)CCCCCCCCCCCCCCCCC(=O)O)C(=O)N[C@H](CC(=O)N(C)[C@@H](CCCCN)C(N)=O)Cc2ccccc2)NC1=O)C(c1ccccc1)c1ccccc1)[C@@H](C)O [compound 292] (Isovaleryl-ETH[Dip]PCC[NMeK]([AEEA-AEEA-Dap-C18 diacid])[β3hF][NMeK]-NH2; disulfide 6-7)		10 to 100 nM	8.00 to 9.00		
COC(=O)CC[C@H](NC(=O)CC(C)C)C(=O)N[C@H](C(=O)N[C@@H](Cc1c[nH]cn1)C(=O)N[C@H](C(=O)N1CCC[C@H]1C(=O)N[C@H]1CSSC[C@@H](C(=O)N(C)[C@@H](CCCCNC(=O)CCCCCNC(=O)C[N+](C)(C)CCNC(=O)CCCCCCCCCCCCCCCCC(=O)O)C(=O)N[C@H](C(=O)N[C@H](CCCCN)C(N)=O)C(c2ccccc2)c2ccccc2)NC1=O)C(c1ccccc1)c1ccccc1)[C@@H](C)OC [compound 147] (Isovaleryl-E(OMe)T(Me)H[Dip]PCC[NMeK]([Ahx-X1])[Dip][dK]-NH2; disulfide 6-7)				10 to 100 nM	6.30 to 7.00
